Assay results reported in ChEMBL document CHEMBL4834480, “Discovery of 3,5-Dimethyl-4-Sulfonyl-1H-Pyrrole-Based Myeloid Cell Leukemia 1 Inhibitors with High Affinity, Selectivity, and Oral Bioavailability” (J Med Chem, 2021).
Calls of active or inactive are those of the source. The calls are words filed in the database; no cut-off is given here.

How the values were obtained:
[1] = biological target: Induced myeloid leukemia cell differentiation protein Mcl-1 (Homo sapiens, UniProt Q07820); assay: Inhibition of FITC-labeled Bak BH3 peptide binding to GST-tagged MCL1 (171 to 327 residues) (unknown origin) expressed in Escherichia coli BL21 (DE3) incubated for 30 mins fluorescence polarization-based competitive binding assay
Induced myeloid leukemia cell differentiation protein Mcl-1, sequence (Q07820 whole entry, the tested form may be a part): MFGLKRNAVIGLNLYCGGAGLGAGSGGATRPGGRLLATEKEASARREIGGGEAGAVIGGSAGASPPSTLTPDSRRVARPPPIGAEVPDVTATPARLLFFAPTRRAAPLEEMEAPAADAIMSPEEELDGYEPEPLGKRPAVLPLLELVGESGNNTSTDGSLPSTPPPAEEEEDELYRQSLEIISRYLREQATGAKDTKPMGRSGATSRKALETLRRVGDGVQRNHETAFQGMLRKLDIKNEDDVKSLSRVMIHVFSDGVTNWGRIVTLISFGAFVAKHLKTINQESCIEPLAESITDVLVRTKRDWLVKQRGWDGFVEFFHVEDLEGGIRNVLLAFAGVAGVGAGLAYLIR

NCI-H23 = assay: Antiproliferative activity against human NCI-H23 cells assessed as decrease in cell viability measured after 72 hrs by MTT assay; assay type: functional, cell-based; settings: NCI-H23, 72 h
Bcl-2-like protein 1 = Bcl-2-like protein 1 (Homo sapiens, UniProt Q07817); assay: Inhibition of BCL-XL(unknown origin) at 10 uM incubated for 120 mins by TR-FRET assay relative to control
Bcl-2-like protein 1, sequence (Q07817 whole entry): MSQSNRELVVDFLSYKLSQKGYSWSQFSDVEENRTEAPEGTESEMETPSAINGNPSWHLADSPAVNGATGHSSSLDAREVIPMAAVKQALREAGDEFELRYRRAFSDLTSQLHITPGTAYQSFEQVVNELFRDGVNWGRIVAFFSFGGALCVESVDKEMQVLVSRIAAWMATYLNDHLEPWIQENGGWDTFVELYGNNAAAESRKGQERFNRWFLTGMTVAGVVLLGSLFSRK

NCI-H929 [2] = assay: Antiproliferative activity against human NCI-H929 cells assessed as decrease in cell viability measured after 72 hrs by MTT assay; assay type: functional, cell-based; settings: NCI-H929, 72 h
SK-BR-3 = assay: Antiproliferative activity against human SK-BR-3 cells assessed as decrease in cell viability measured after 72 hrs by MTT assay; assay type: functional, cell-based; settings: SK-BR-3, 72 h
K562 [3] = assay: Antiproliferative activity against human K562 cells assessed as decrease in cell viability measured after 72 hrs by MTT assay; assay type: functional, cell-based; settings: K562, 72 h
[4] = biological target: Apoptosis regulator Bcl-2 (Homo sapiens, UniProt P10415); assay: Inhibition of FITC-labeled Bak BH3 peptide binding to GST-tagged BCL2 (1 to 205 residues) (unknown origin) expressed in Escherichia coli BL21 (DE3) at 10 uM incubated for 30 mins fluorescence polarization-based competitive binding assay relative to control
Apoptosis regulator Bcl-2, sequence (P10415 whole entry, the tested form may be a part): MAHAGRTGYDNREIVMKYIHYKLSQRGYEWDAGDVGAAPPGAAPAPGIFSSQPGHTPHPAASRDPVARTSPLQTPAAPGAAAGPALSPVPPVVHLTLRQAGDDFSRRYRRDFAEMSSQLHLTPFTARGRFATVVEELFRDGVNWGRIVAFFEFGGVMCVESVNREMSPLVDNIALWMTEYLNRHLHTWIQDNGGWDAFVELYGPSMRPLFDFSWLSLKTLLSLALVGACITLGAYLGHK

MV4-11 [5] = assay: Antiproliferative activity against human MV4-11 cells assessed as decrease in cell viability measured after 72 hrs by MTT assay; assay type: functional, cell-based; settings: MV4-11, 72 h
[6] = biological target: T1, Bcl-2-related protein A1 (Homo sapiens) (UniProt Q16548); assay: Inhibition of FITC-labeled Bak BH3 peptide binding to GST-tagged BFL1 (1 to 151 residues) (unknown origin) expressed in Escherichia coli BL21 (DE3) at 10 uM incubated for 30 mins fluorescence polarization-based competitive binding assay relative to control
T1 sequence (whole entry): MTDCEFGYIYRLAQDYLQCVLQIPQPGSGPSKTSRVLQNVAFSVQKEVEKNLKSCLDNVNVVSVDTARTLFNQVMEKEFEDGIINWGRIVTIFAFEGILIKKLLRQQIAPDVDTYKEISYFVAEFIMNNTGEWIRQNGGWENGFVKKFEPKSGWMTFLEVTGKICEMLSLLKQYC

MV4-11 [7] = assay: Induction of apoptosis in human MV4-11 cells xenografted in BALB/c nude mouse assessed as induction of PARP cleavage at 10 mg/kg, ip administered every two days for 14 days by Western blot analysis; assay type: functional, organism-based; settings: time 14.0 day
MV4-11 [8] = assay: Antitumor activity against human MV4-11 cells xenografted in BALB/c nude mouse assessed as tumor growth inhibition by measuring T/C ratio at 10 mg/kg, ip administered every two days for 14 days relative to control; assay type: functional; settings: time 14 day
K562 [9] = assay: Induction of apoptosis in human K562 cells assessed as activation of caspase 7 up to 5 uM after 4 hrs by luminescence based microplate reader assay; assay type: functional, cell-based; settings: dose microM <=5, time 4.0 hrs
NCI-H929 [10] = assay: Induction of apoptosis in human NCI-H929 cells measured after 48 hrs by annexinV-FITC/propidium iodide staining based flow cytometry analysis; assay type: functional, cell-based; settings: dose 1-5 µM
NCI-H929 [11] = assay: Induction of apoptosis in human NCI-H929 cells assessed as upregulation of cleaved PARP measured after 48 hrs by Western blot analysis; assay type: functional, cell-based; settings: dose microM <=5, time 48.0 hrs
K562 [12] = assay: Induction of apoptosis in human K562 cells assessed as upregulation of cleaved PARP up to 5 uM measured after 48 hrs by Western blot analysis; assay type: functional, cell-based; settings: dose microM <=5, time 48.0 hrs
K562 [13] = assay: Induction of apoptosis in human K562 cells assessed as activation of caspase 3 up to 5 uM after 4 hrs by luminescence based microplate reader assay; assay type: functional, cell-based; settings: dose microM <=5, time 4.0 hrs

CCc1c(S(=O)(=O)c2ccc(C)cc2)c(CC)n(CCCOc2cc(C)c(Cl)c(C)c2)c1C(=O)O
Ki [1]: 1930 nM

Cc1ccc(S(=O)(=O)c2c(C)c(C(=O)O)n(CCCOc3cc(C)c(Cl)c(C)c3)c2C)cc1
Ki [1]: 170 nM

Cc1cc(OCCCn2c(C)c(S(=O)(=O)c3ccc(Br)cc3)c(C)c2C(=O)O)cc(C)c1Cl
IC50 (NCI-H23): 3840 nM | inhibition (Bcl-2-like protein 1): 13% | IC50 (NCI-H929 [2]): 480 nM | IC50 (SK-BR-3): 5600 nM | Ki [1]: 40 nM | IC50 (K562 [3]): > 30000 nM | inhibition [4]: 11.6% | IC50 (MV4-11 [5]): 1700 nM | inhibition [6]: 4.14%

Cc1cc(C)cc(S(=O)(=O)c2c(C)c(C(=O)O)n(CCCOc3cc(C)c(Cl)c(C)c3)c2C)c1
Ki [1]: > 10000 nM

Cc1cc(OCCCn2c(C)c(S(=O)(=O)c3ccc(C(=O)c4ccccc4)cc3)c(C)c2C(=O)O)cc(C)c1Cl
Ki [1]: 380 nM

Cc1ccc(S(=O)(=O)c2c(C)c(C(=O)O)n(CCCOc3cc(C)c(Cl)c(C)c3)c2CC(C)C)cc1
Ki [1]: 1600 nM

Cc1cc(OCCCn2c(C)c(S(=O)(=O)c3ccc(O)cc3)c(C)c2C(=O)O)cc(C)c1Cl
IC50 (NCI-H23): 2160 nM | IC50 (NCI-H929 [2]): 1390 nM | IC50 (SK-BR-3): 7020 nM | Ki [1]: 18 nM | IC50 (K562 [3]): 14800 nM | IC50 (MV4-11 [5]): 2020 nM

Cc1cc(OCCCn2c(C)c(S(=O)(=O)c3ccncc3)c(C)c2C(=O)O)cc(C)c1Cl
Ki [1]: 900 nM

CC(=O)c1cccc(S(=O)(=O)c2c(C)c(C(=O)O)n(CCCOc3cc(C)c(Cl)c(C)c3)c2C)c1
Ki [1]: 550 nM

Cc1cc(OCCCn2c(C)c(S(=O)(=O)c3ccc(Oc4ccccc4)cc3)c(C)c2C(=O)O)cc(C)c1Cl
Ki [1]: 200 nM

Cc1cc(OCCCn2c(C)c(S(=O)(=O)c3ccc(N)cc3)c(C)c2C(=O)O)cc(C)c1Cl
Ki [1]: 340 nM

Cc1cc(OCCCn2c(C)c(S(=O)(=O)c3ccc([N+](=O)[O-])cc3)c(C)c2C(=O)O)cc(C)c1Cl
Ki [1]: 420 nM

CC(=O)c1ccccc1S(=O)(=O)c1c(C)c(C(=O)O)n(CCCOc2cc(C)c(Cl)c(C)c2)c1C
Ki [1]: 500 nM

Cc1cc(OCCCn2c(C)c(S(=O)(=O)c3ccc(C(C)(C)C)cc3)c(C)c2C(=O)O)cc(C)c1Cl
Ki [1]: 340 nM

Cc1cc(OCCCn2c(C)c(S(=O)(=O)Cc3ccccc3)c(C)c2C(=O)O)cc(C)c1Cl
Ki [1]: 2000 nM

Cc1ccc(S(=O)(=O)c2cc(C(=O)O)n(CCCOc3cc(C)c(Cl)c(C)c3)c2)cc1
Ki [1]: 470 nM

Cc1cc(OCCCn2c(C)c(S(=O)(=O)c3cccc(Br)c3)c(C)c2C(=O)O)cc(C)c1Cl
Ki [1]: 60 nM

Cc1c2c(nn1C)CSCc1cc(n(C)n1)CSc1cc(c3ccccc3c1)OCCCc1c(C(=O)O)n(C)c3c-2c(Cl)ccc13 [AZD-5991]
IC50 (NCI-H23): 190 nM | Activity (MV4-11 [7]): Active | IC50 (NCI-H929 [2]): 36 nM | IC50 (SK-BR-3): 30000 nM | IC50 (K562 [3]): 29600 nM | IC50 (MV4-11 [5]): 24 nM | T/C (MV4-11 [8]): 5.18%

CCc1c(S(=O)(=O)c2ccc(C)cc2)c(C)n(CCCOc2cc(C)c(Cl)c(C)c2)c1C(=O)O
Ki [1]: 120 nM

Cc1cc(OCCCn2c(C)c(S(=O)(=O)c3ccccn3)c(C)c2C(=O)O)cc(C)c1Cl
Ki [1]: 1900 nM

Cc1nn(C)c(COc2ccc(N3CCN(S(=O)(=O)N(C)C)CC3)cc2)c1-c1cccc2c(CCCOc3cccc4ccccc34)c(C(=O)O)n(CCN3CCOCC3)c12
Activity (K562 [9]): inactive | IC50 (NCI-H23): 13500 nM | IC50 (NCI-H929 [2]): 900 nM | IC50 (SK-BR-3): 4310 nM | Activity (NCI-H929 [10]): Dose-Dependent Effect | Ki [1]: 6 nM | IC50 (K562 [3]): > 30000 nM | Activity (NCI-H929 [11]): Dose-Dependent Effect | Activity (K562 [12]): inactive | Activity (K562 [13]): inactive | IC50 (MV4-11 [5]): 1550 nM

Cc1cc(OCCCn2c(C)c(S(=O)(=O)c3ccccc3)c(C)c2C(=O)O)cc(C)c1Cl
Ki [1]: 190 nM

Cc1ccc(S(=O)(=O)c2c(CC(C)C)c(C(=O)O)n(CCCOc3cc(C)c(Cl)c(C)c3)c2C)cc1
Ki [1]: 240 nM

Cc1cc(OCCCn2c(C)c(S(=O)(=O)c3cccc4ccccc34)c(C)c2C(=O)O)cc(C)c1Cl
Ki [1]: 360 nM
